In patent US10815460B2, “Three-dimensional differentiation of epiblast spheroids to kidney organoids models stage-specific epithelial physiology, morphogenesis, and disease” (THE BRIGHAM AND WOMEN'S HOSPITAL, INC., priority 2015, dated 2020):
“Also recorded” adds a separate entry of the source.

Key:
Assay type in all cases: cell-based, human
[1] = tested on: kidney organoids; experiment: KIM-1 induction in kidney organoids treated with nephrotoxic drugs
Source text: (§1) FIG. 27. […] (a) Co-localization of KIM-1 antibody AKG7 with LTL or (b) with a second KIM-1 antibody (KIMlab2). […] (e) Phase contrast time course of tubules in culture. After 120 days of culture (d120), tubules were fixed and stained for LTL. (f) Whole well of a 96-well plate showing kidney organoids. Scale bars, 50 μm. Error bars, s.e.m.

[2] = tested on: epiblast spheroids; experiment: Epiblast spheroids treated with titrations of cisplatin and gentamicin (KIM-1, toxicity)
Source text: FIG. 20. […] Scale bars, 50 μm.
as §1

[3] = tested on: tubular organoids; experiment: Transport of fluorescent cargoes in tubular organoids
Protocol: (§2) To test permeability, media was supplemented with 20 mM HEPES plus Lucifer Yellow™ carbohydrazide potassium salt (Invitrogen, 38 μM) and Rhodamine-8 isothiocyanate dextran (Sigma, 0.5 μM), and imaged by confocal microscopy. For microinjection, 5 μM rhodamine-conjugated dextran solution in mTeSR1 was diluted 1:1 with Phenol Red Solution (0.5%, Sigma) for visualization. 2 nl was microinjected via a pulled glass capillary microneedle on a Nanoject-2 micromanipulator, and monitored in real-time by wide-field epifluorescence. For TEER, 50,000 hPSCs were plated on 24-well transwell plates (Corning) pre-coated with dilute […]™. […] TEER was measured using an EVOM 2™ device (World Precision Instruments).
as §2, with “Rhodamine-B” for “Rhodamine-8”, “0.5” for “0.5 μM),”, “5” for “5 μM”

[4] = tested on: hPSC spheroids; experiment: hPSC spheroid cavity formation (lumenogenesis) in 3D sandwich culture
Source text: Cell lines included H9 (WA09), BJ, HDFn, hLR5, hfib2-iPS4, and hfib2-iPS5 (human) and J1, R1, and v6 (mouse). Cells were maintained feeder-free on 3% Reduced Growth Factor GelTrex™ (Life Technologies) for at least one passage in media (mTeSR1 for hPSCs; […] supplement+2i in for mESCs; hESC conditioned media (CM)+leukemia inhibitory factor (LIF)+dox for hLR5 iPSCs) and dissociated with Accutase® or TrypLE™. LD-iPSCs were derived from native hLR5 iPSCs by withdrawing LIF and doxycycline and substituting with FGF2. For thin gel sandwich colonies, cells were plated at 60,000 (primed) or 30,000 (native) cells/well of a 24-well plate or 4-well chamber slide pre-coated with GelTrex™ in media supplemented with 10 μM Rho-kinase inhibitor Y27632 (StemGent). The following day the media was replaced with 500 μL 1.5% GelTrex™ in mTeSR1. Media was changed after 24 hours. […]
For fluorescence intensity quantifications, images were taken in a single imaging session and at identical exposures and processed identically. The number of cavitated colonies (ellipsoid with lumen) versus flat colonies (non-ellipsoid or without a lumen) was scored manually in phase contrast images of living cells, in which lumens were discerned more easily than in fixed samples. For apoptosis, cleaved caspase-3 expression was scored manually, confirmed by nuclear condensation, and divided by the total number of nuclei per wide-field epifluorescent image. […] For each colony, the summed ZO-1 expressing area was expressed as a percentage of the total surface area and then averaged. To quantify intensities, line scans of equal length were drawn through randomly selected structures imaged with identical exposures to obtain raw fluorescence values in NIS Elements software (Nikon). […] For CHIR-induced differentiation, […] individual cells were identified in low-magnification immunofluorescence images using Cell Profiler 2.0 and fluorescence intensities were measured automatically. […] Immunoblots were quantified using the ImageJ Gel Analyzer. […]

[5] = tested on: hPSCs; experiment: BRY immunofluorescence in hPSC cultures treated with CHIR in mTeSR1; conditions: 5˜M CHIR, 3D versus 2D cultures plated side-by-side
Source text: FIG. 2. Cavitated spheroids represent epiblast. (a) Schematic of serial passaging experiment. (b) Representative brightfield images of hPSCs in 3D cultures which were dissociated (colored frames) and passaged (matching colored arrows). Dashed arrows represent serial passages in the 3D condition. […] (c) Hematoxylin and eosin-stained sections of teratomas generated from hPSC serial 3D passages p3, p6, and p9 showing pigmented epithelium (ectoderm), cartilage (mesoderm), and glandular epithelium (endoderm). (d) Cell number (average of duplicate counts for each time point, or AVG of all time points) in 2D and 3D cultures 72 hours after plating. […] (h) Morphology and (i) quantification (n=3) of hPSC colonies cultured in mTeSR1 plus CHIR, compared to controls in mTeSR1 alone. […]
For fluorescence intensity quantifications, images were taken in a single imaging session and at identical exposures and processed identically. The number of cavitated colonies (ellipsoid with lumen) versus flat colonies (non-ellipsoid or without a lumen) was scored manually in phase contrast images of living cells, in which lumens were discerned more easily than in fixed samples. For apoptosis, cleaved caspase-3 expression was scored manually, confirmed by nuclear condensation, and divided by the total number of nuclei per wide-field epifluorescent image. […] Immunoblots were quantified using the ImageJ Gel Analyzer. […]

gentamicin
KIM-1 expression in organoid tubules ([1]; increasing concentrations, 36-48 hours, immunofluorescence): expressed apical kidney injury molecule-1 (KIM-1); also recorded: observed at moderate, sub-toxic doses
concentration sufficient to induce KIM-1 in kidney organoids ([1]; kidney organoids): ~5000 µM
sensitivity of epiblast spheroids to drug [2]: exhibited dose-dependent sensitivity
KIM-1 upregulation in epiblast spheroids ([2]; any dose including 5 mM gentamicin): did not upregulate KIM-1; also recorded: No KIM-1 expression is observed

O=C(O)CN(CCN(CC(=O)O)CC(=O)O)CC(=O)O [EDTA]
luminal RD signal intensity in loaded organoids ([3]; 0.5 mM EDTA for one hour): decreased

protamine sulfate [PS]
3D cavity formation ([4]; 8 μg/ml protamine sulfate): strongly inhibited 3D cavity formation
podocalyxin localization ([4]; 8 μg/ml protamine sulfate): mislocalization of podocalyxin to dispersed patches

Cc1c[nH]c(-c2cnc(NCCNc3ccc(C#N)cn3)nc2-c2ccc(Cl)cc2Cl)n1 [CHIR]
spheroid formation ([4]; CHIR added at the time of sandwiching, in mTeSR1): inhibited spheroid formation in a dose-dependent manner
BRY expression [5]: induced higher levels of BRY expression in 3D cultures than in 2D cultures

C/C1=C/C(=O)O[C@@H]2C[C@@H](CC[C@H](C)/C=C\CC1)O[C@@](O)([C@@H]1CSC(=O)N1)C2 [latrunculin (Lat)B, Latrunculin B]
effect on RD accumulation in tubular organoids ([3]; co-incubation, 2 μM LatB): significantly reduced RD accumulation
